Test results taken from PubChem BioAssay (NCI).
“And” between values parts separate entries of the source, which are not always exact repeats. Equal values may be shown once.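 Growth conditions: 96-well plates. Treatment: test compound, 48 hours, 5 concentrations. Analysis: linear interpolation between bracketing concentrations; unreached endpoints set to highest concentration. Abbreviation: GI50, concentration required for 50% inhibition of growth. Definition used: TGI = concentration required for complete inhibition of growth.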

Key:
Test in all cases: NCI tumour cell line growth inhibition, 48 h
[1] = system: A549 NSCLC
[2] = system: IGROV1 ovarian
[3] = system: MALME-3M melanoma
[4] = system: NCI-H522 lung
[5] = system: OVCAR-8 ovarian
[6] = system: SK-MEL-5 melanoma
[7] = system: SR leukemia
[8] = system: SK-MEL-28 melanoma

CC(=O)O[C@H](C[C@H](C(C)C)N(C)C(=O)[C@@H](NC(=O)[C@H]1CCCCN1C)C(C)C)c1nc(C(=O)N[C@@H](Cc2ccccc2)C[C@H](C)C(=O)O)c(C(C)C)s1 was tested. Which GI50 [1] did it give?
Its GI50 is 0.00495 µM.

What about the TGI [1] of the same molecule?
Its TGI is over 33.3 µM.

What about the GI50 [2] of the same molecule?
Its GI50 is under 0.00333 µM.

What about the TGI [2] of the same molecule?
The TGI was over 33.3 µM.

What about the GI50 [3] of the same molecule?
The GI50 was under 0.00333 µM.

And the TGI [3]?
Its TGI is over 33.3 µM.

And the GI50 [4]?
The GI50 was under 0.00333 µM.

And the TGI [4]?
The TGI was 0.499 µM.

And the GI50 [5]?
The GI50 was under 0.00333 µM.

And the TGI [5]?
Its TGI is over 33.3 µM.

What about the GI50 [6] of the same molecule?
The GI50 was under 0.00333 µM.

And the TGI [6]?
The TGI was 0.00641 µM.

And the GI50 [7]?
Its GI50 is under 0.00333 µM.

What about the TGI [7] of the same molecule?
The TGI was over 33.3 µM.

Which GI50 [1] does the source give for COc1ccc(C2=NN(C(=O)c3cc(OC)c(OC)c(OC)c3)C(c3ccc(Cl)cc3)C2)cc1OC (stereo unspecified) here?
Its GI50 is 4.03 µM.

And the TGI [1]?
The TGI was over 100 µM.

And the GI50 [2]?
Its GI50 is 2.11 µM.

What about the TGI [2] of the same molecule?
Its TGI is 40 µM.

And the GI50 [3]?
The GI50 was 3.95 µM.

What about the TGI [3] of the same molecule?
The TGI was 98.9 µM.

And the GI50 [4]?
The GI50 was 1.48 µM.

And the TGI [4]?
Its TGI is over 24.3 µM.

And the GI50 [5]?
The GI50 was 4.63 µM.

What about the TGI [5] of the same molecule?
Its TGI is over 58.6 µM.

What about the GI50 [8] of the same molecule?
Its GI50 is 1.65 µM.

And the TGI [8]?
Its TGI is over 55.9 µM.

What about the GI50 [6] of the same molecule?
Its GI50 is 0.549 µM.

And the TGI [6]?
Its TGI is 15.6 µM.

What about the GI50 [7] of the same molecule?
The GI50 was 0.448 µM.

And the TGI [7]?
The TGI was over 100 µM.

Which results are given for COC(=O)[C@]12CC[C@@H](C)[C@H](C)[C@@H]1C1=CC[C@@H]3[C@@]4(C)C(C=O)=C[C@@](C)(COC(=O)c5ccco5)[C@@H]4C(=O)C[C@@]3(C)[C@]1(C)CC2?
GI50 [1]: 3.99 µM; TGI [1]: > 100 µM; GI50 [2]: 7.66 µM; TGI [2]: > 100 µM; GI50 [3]: 0.0359 µM; TGI [3]: 0.256 µM; GI50 [4]: 7.63 µM; TGI [4]: > 100 µM; GI50 [5]: 5.55 µM; TGI [5]: > 100 µM; GI50 [8]: 0.0524 µM; TGI [8]: > 100 µM; GI50 [6]: 0.294 µM; TGI [6]: 1.45 µM; GI50 [7]: 3.12 µM; TGI [7]: 39.4 µM

What does the source list for C/C(=C\C1=C(Cl)C(=O)c2ccccc2C1=O)C(=O)O?
GI50 [1]: 21.9 µM; TGI [1]: 43 µM; GI50 [2]: 15.1 µM; TGI [2]: 28.6 µM; GI50 [3]: 24 µM; TGI [3]: 40.2 µM; GI50 [4]: 11.9 µM; TGI [4]: 26.9 µM; GI50 [5]: 22.6 µM; TGI [5]: 45.6 µM; GI50 [8]: 20.2 µM; TGI [8]: 34.6 µM; GI50 [6]: 17.5 µM; TGI [6]: 31.3 µM; GI50 [7]: 24.2 µM; TGI [7]: > 100 µM

CCOc1cc2c(cc1O)/C(=N\O)C[C@@H]1[C@@H]2CC[C@]2(C)[C@@H](O)CC[C@@H]12 was tested. Which GI50 [1] did it give?
The GI50 was 0.0854 µM.

And the TGI [1]?
The TGI was over 100 µM.

What about the GI50 [2] of the same molecule?
Its GI50 is 0.296 µM.

What about the TGI [2] of the same molecule?
The TGI was over 100 µM.

What about the TGI [5] of the same molecule?
Its TGI is over 100 µM.

And the GI50 [8]?
The GI50 was 0.0143 µM.

What about the TGI [8] of the same molecule?
Its TGI is over 53.5 µM.

What about the GI50 [6] of the same molecule?
Its GI50 is 0.00618 µM.

What about the TGI [6] of the same molecule?
The TGI was 1.32 µM and 10.2 µM.

For CC1(C)CCc2cc3c(cc2O1)OCC1c2cc4c(cc2OC31)OCO4 (stereo unspecified), which TGI [1] is on record?
Its TGI is over 100 µM.

What about the TGI [2] of the same molecule?
The TGI was over 100 µM.

What about the TGI [3] of the same molecule?
Its TGI is over 100 µM.

And the TGI [4]?
Its TGI is over 100 µM.

And the TGI [5]?
The TGI was over 100 µM.

And the TGI [6]?
The TGI was over 100 µM.

And the TGI [7]?
Its TGI is over 100 µM.

With CC(C)(C)c1[nH]cnc1/C=c1\[nH]c(=O)/c(=C/c2ccccc2)[nH]c1=O as the molecule, how does the GI50 [1] read?
Its GI50 is 0.0181 µM.

And the TGI [1]?
The TGI was 41.5 µM.

What about the GI50 [2] of the same molecule?
Its GI50 is 0.0134 µM.

What about the TGI [2] of the same molecule?
Its TGI is 24.2 µM.

What about the GI50 [3] of the same molecule?
The GI50 was under 0.105 µM.

And the TGI [3]?
The TGI was 29.8 µM.

And the GI50 [4]?
The GI50 was under 0.01 µM.

What about the TGI [4] of the same molecule?
Its TGI is 0.159 µM.

What about the GI50 [5] of the same molecule?
Its GI50 is under 0.0125 µM.

And the TGI [5]?
Its TGI is 50.8 µM.

And the GI50 [8]?
The GI50 was 10.5 µM.

What about the TGI [8] of the same molecule?
Its TGI is 28.3 µM.

What about the GI50 [6] of the same molecule?
Its GI50 is under 0.0133 µM.

What about the TGI [6] of the same molecule?
Its TGI is 0.137 µM.

Which TGI [1] does the source give for Cc1cc(=O)[nH]o1 here?
Its TGI is over 100 µM.

And the TGI [2]?
Its TGI is over 100 µM.

What about the TGI [4] of the same molecule?
The TGI was over 100 µM.

What about the TGI [5] of the same molecule?
The TGI was over 100 µM.

What about the TGI [8] of the same molecule?
Its TGI is over 100 µM.

What does the source list for CCCC[N+](CCCC)=c1ccc2nc3c(C)cc(N(CC)CC)cc3sc-2c1?
GI50 [3]: 0.165 µM; TGI [3]: 0.429 µM; GI50 [5]: 0.0703 µM; TGI [5]: 2.16 µM; GI50 [8]: 0.613 µM; TGI [8]: 2.03 µM; GI50 [6]: 0.0993 µM; TGI [6]: 0.403 µM; GI50 [7]: 0.0524 µM; TGI [7]: 1.97 µM

Which GI50 [1] does the source give for O=c1cc(N2CCNCC2)oc2c(-c3ccccc3)cccc12 here?
Its GI50 is 23.3 µM.

And the TGI [1]?
Its TGI is 76.2 µM.

What about the GI50 [2] of the same molecule?
The GI50 was 31.8 µM.

And the TGI [2]?
Its TGI is over 100 µM.

What about the GI50 [3] of the same molecule?
The GI50 was 23.6 µM.

And the TGI [3]?
The TGI was 56.8 µM.

What about the GI50 [4] of the same molecule?
Its GI50 is 37 µM.

What about the TGI [4] of the same molecule?
Its TGI is over 100 µM.

And the GI50 [5]?
Its GI50 is 74.2 µM.

What about the TGI [5] of the same molecule?
Its TGI is over 100 µM.

What about the GI50 [8] of the same molecule?
Its GI50 is 39.6 µM.

What about the TGI [8] of the same molecule?
Its TGI is over 100 µM.

And the GI50 [6]?
Its GI50 is 14.8 µM.

And the TGI [6]?
The TGI was 32.5 µM.

Which GI50 [1] does the source give for Cc1cc(C2=NNC(=O)Cc3cc4c(cc32)OCCO4)cc(C)c1N here?
Its GI50 is 3.2 µM.

What about the TGI [1] of the same molecule?
Its TGI is over 100 µM.

And the GI50 [2]?
Its GI50 is 3 µM.

And the TGI [2]?
The TGI was over 100 µM.

And the GI50 [4]?
The GI50 was 1.24 µM.

And the TGI [4]?
Its TGI is 6.19 µM.

And the GI50 [5]?
Its GI50 is 4.08 µM.

And the TGI [5]?
The TGI was over 100 µM.

And the GI50 [8]?
Its GI50 is 5.37 µM.

What about the TGI [8] of the same molecule?
The TGI was over 100 µM.

What about the GI50 [6] of the same molecule?
The GI50 was 1.22 µM.

And the TGI [6]?
The TGI was over 100 µM.

And the GI50 [7]?
Its GI50 is 0.31 µM.

And the TGI [7]?
Its TGI is over 100 µM.

What does the source list for Oc1ccc(O)c(-c2cc(-c3ccccc3)nn2-c2ccccc2)c1?
GI50 [1]: 17.3 µM; TGI [1]: 80.9 µM; GI50 [2]: > 100 µM; TGI [2]: > 100 µM; GI50 [4]: 31 µM; TGI [4]: > 100 µM; GI50 [5]: 17.2 µM; TGI [5]: 74 µM; GI50 [8]: 40.8 µM; TGI [8]: > 100 µM; GI50 [6]: 30.7 µM; TGI [6]: > 100 µM

What does the source list for Cn1c(O)c(C(/C=C/c2ccccc2)=NCCN=C(/C=C/c2ccccc2)c2c(O)n(C)c(=O)n(C)c2=O)c(=O)n(C)c1=O?
GI50 [1]: 16.7 µM; TGI [1]: > 50 µM; GI50 [2]: 20.7 µM; TGI [2]: > 50 µM; GI50 [3]: 30.9 µM; TGI [3]: > 50 µM; GI50 [4]: 16.8 µM; TGI [4]: > 50 µM; GI50 [5]: 16.6 µM; TGI [5]: > 50 µM; GI50 [8]: 10.2 µM; TGI [8]: 33.6 µM; GI50 [6]: 11.4 µM; TGI [6]: 29.5 µM
